Assay [1] is described as follows: Antioxidant activity assessed as ABTS free radical scavenging activity by spectrophotometry. Details: concentration or dose not given beside the values. The assay is classed as functional.
For assay [2], the system named is MCF7. Put plainly: Antiproliferative activity against human MCF7 cells after 48 hrs by MTT assay. Format: functional, cell-based. The note with it: MCF7, 48 h. (Formazan colour is commonly taken as a measure of viable cells.)
The next assay deals with WI-38. Kind of assay: Antiproliferative activity against human WI38 cells after 48 hrs by MTT assay. Format: functional, cell-based. The note with it: WI-38, 48 h.
The next assay deals with Vero. Kind of assay: Antiproliferative activity against african green monkey Vero cells after 48 hrs by MTT assay. As to conditions: Chlorocebus sabaeus. Format: functional, cell-based.
The next assay concerns PBL. Put plainly: Immunostimulant activity in PHA-stimulated human PBL assessed as lymphocyte transformation at 2 mM after 72 hrs by Giemsa staining method. The assay is classed as functional.
The next assay has as its system HepG2. Put plainly: Antiproliferative activity against human HepG2 cells after 48 hrs by MTT assay. The assay is classed as functional, cell-based. The note with it: HepG2, 48 h.
Assay [3] concerns MCF7. Kind of assay: Cell cycle arrest in human MCF7 cells assessed as reduction in S-phase accumulation at IC50 after 24 hrs by FACs analysis (reference value: 34.1+/-1.1 %). The assay is classed as functional. Also on record: scale not given: the % may be the effect or the level left.
In assay [4] the test system is MCF7. Kind of assay: Cell cycle arrest in human MCF7 cells assessed as reduction in G2/M-phase accumulation at IC50 after 24 hrs by FACs analysis relative to untreated control. The assay is classed as functional, cell-based.
The test system of assay [5] is MCF7. Put plainly: Cell cycle arrest in human MCF7 cells assessed as increase in G0/G1-phase accumulation at IC50 after 24 hrs by FACs analysis (reference value: 55.6+/-0.6 %). Format: functional.
The test system of assay [6] is MCF7. Kind of assay: Cell cycle arrest in human MCF7 cells assessed as reduction in S-phase accumulation at IC50 after 24 hrs by FACs analysis. Format: functional, cell-based.
The test system of assay [7] is MCF7. Kind of assay: Cell cycle arrest in human MCF7 cells assessed as increase in G0/G1-phase accumulation at IC50 after 24 hrs by FACs analysis. The assay is classed as functional, cell-based.
The subject of assay [8] is MCF7. Kind of assay: Cell cycle arrest in human MCF7 cells assessed as increase in pre-G apoptotic fraction at IC50 after 24 hrs by FACs analysis relative to untreated control. Format: functional, cell-based.

Active and inactive are the calls of the source. The calls are words filed in the database; no cut-off is given here.

Results on ten compounds are retold here after ChEMBL document CHEMBL2407006, “Selective cytotoxic effects on human breast carcinoma of new methoxylated flavonoids from Euryops arabicus grown in Saudi Arabia” (Eur J Med Chem, 2013).

Turning to `O=C1O[C@H]([C@@H](O)CO)C(O)=C1O`, in assay [1], the Activity is 80%.
For `COc1cc(-c2cc(=O)c3c(O)cc(OC)c(OC)c3o2)cc(OC)c1OC`, the Activity in assay [1] stood at 54.2%; in the assay on PBL, 45%. Also, the IC50 (commonly the concentration at which inhibition is half-maximal) in the assay with MCF7 [2] was 20 µM; in the assay on WI-38, 100 µM; in the assay with Vero, 105 µM; in the assay on HepG2, 25 µM.
For `COc1ccc(-c2cc(=O)c3c(O)c(OC)c(OC)c(OC)c3o2)cc1` [GARDENIN B], the Activity came out at 75.4% in assay [1] and 20% with PBL. Besides, the 50% inhibitory concentration (IC50) in the assay on MCF7 [2] came out at 30 µM; in the assay with WI-38 it was 75 µM; in the assay on Vero it was 85 µM; in the assay with HepG2, 40 µM.
As for `COc1cc(-c2cc(=O)c3cc(OC)c(OC)c(O)c3o2)cc(O)c1OC`, the Activity came to 56.8% in assay [1] and 35% in the assay with PBL. Also, the IC50 is 25 µM in the assay with MCF7 [2], 105 µM in the assay on WI-38, 85 µM with Vero and 30 µM in the assay with HepG2.
In the case of `COc1ccc(-c2oc3c(OC)c(OC)c(OC)c(O)c3c(=O)c2OC)cc1` [5-HYDROXYAURANETIN], the figures for the Activity (in assay [1]; in the assay with PBL) were 71.1% and 25%, respectively. Also, the half-maximal inhibitory concentration (IC50) is 30 µM with MCF7 [2], 80 µM with WI-38, 90 µM in the assay with Vero and 35 µM in the assay with HepG2.
For `COc1ccc(-c2cc(=O)c3cc(OC)c(O)c(OC)c3o2)cc1OC`, the Activity in assay [1] was found to be 52.7%; in the assay with MCF7 [3], 15.6%; with PBL, 55%; with MCF7 [5] it was 73.4%. For the same compound, the 50% inhibitory concentration (IC50) was determined as 15 µM in the assay with MCF7 [2], 115 µM in the assay with WI-38, 95 µM in the assay with Vero and 20 µM with HepG2. Moreover, in the assay on MCF7 [4], the result was Active.
With `COc1ccc(-c2cc(=O)c3c(O)c(OC)c(OC)c(O)c3o2)cc1OC`, the Activity in assay [1] is 78.3%; in the assay with PBL it was 15%. Further, the concentration for half-maximal inhibition (IC50) in the assay on MCF7 [2] was determined as 35 µM; in the assay on WI-38, 95 µM; in the assay on Vero, 100 µM; in the assay with HepG2, 45 µM.
In the case of `C=C1C[C@]23CC[C@H]4C(CO)(CO)C(=O)CC[C@]4(C)[C@H]2CC[C@@H]1C3`, the figures for the Activity (in assay [1]; in the assay with PBL) were 34.3% and 10%, respectively. Moreover, the IC50 with MCF7 [2] was determined as 40 µM; in the assay on WI-38, 90 µM; with Vero, 90 µM; in the assay on HepG2 it was 50 µM.
As to `O=c1[nH]cc(F)c(=O)[nH]1` [FLUOROURACIL], the figures for the half-maximal inhibitory concentration (IC50) in the assay with WI-38, in the assay on Vero and in the assay on HepG2 were 10 µM, 8 µM and 10 µM, respectively. Also, the result in the assay on MCF7 [6], in the assay with MCF7 [7] and with MCF7 [8] was Active.
In the case of `COc1cc(O)c2c(=O)cc(-c3ccc(OC)c(OC)c3)oc2c1`, the Activity in assay [1] was determined as 45.8%; in the assay on MCF7 [3] it was 13%; in the assay on PBL, 65%; in the assay on MCF7 [5], 71.3%. In addition, the IC50 in the assay on MCF7 [2] is 10 µM; in the assay on WI-38 it was 105 µM; in the assay on Vero, 125 µM; in the assay with HepG2, 15 µM. Also, the outcome in the assay on MCF7 [4] and in the assay on MCF7 [8] was Active.
